Laboratory results from patent US4302465A, “Therapeutically active, substituted piperidines and pyrrolidines therapeutic compositions thereof and methods of use thereof” (priority 1979, dated 1981).
Values joined by “and” are separate entries in the source; they are usually repeats but may differ in a detail not shown here. Identical values can stand only once.

How the values were obtained:
in vivo [1] = settings: mouse
rabbits = settings: rabbit, in vivo
sciatic nerve = assay: Local anaesthetic effect in rats after perineuronal injection close to the sciatic nerve; assay type: in vivo; settings: for Duration of anaesthesia, Motoric Blockage / Duration of anaesthesia, Sensory Blockage: 1.0% + adr. 5 μg/ml, 10 animals, perineuronal, sciatic nerve
guinea pigs = assay: Local anaesthetic effect in guinea pigs after intracutaneous infiltration; assay type: in vivo; settings: for Duration of Anaesthesia: 1.0% + adrenaline 5 μg/ml, 12 animals
in vivo [2] = settings: rat, iv
[3] = tested on: arrhythmic heart-beats induced by ouabain; assay: Effect against arrhythmic heart-beats induced by ouabain in anaesthetized dogs; assay type: in vivo; settings: for Duration of regularization / Number of regularized arrhythmias (percent) / Number of regularized arrhythmias: ouabain; for Number of regularized arrhythmias: count

Compound | LD50 (in vivo [1]) [mg/kg] | tissue irritation, in words (rabbits) | Duration of anaesthesia, Motoric Blockage (sciatic nerve) [min] | Duration of anaesthesia, Sensory Blockage (sciatic nerve) [min] | local anaesthetic effect, in words (sciatic nerve; perineuronal injection close to the sciatic nerve) | local anaesthetic effect, in words (guinea pigs) | Duration of Anaesthesia (guinea pigs) [min] | TD50 (in vivo [2]) [mg/kg] | effect against arrhythmic heart-beats induced by ouabain, in words [3] | Duration of regularization ([3]; dose 1.0 mg/kg) [min] | Number of regularized arrhythmias (percent) ([3]; dose 1.0 mg/kg) [%] | Number of regularized arrhythmias ([3]; dose 1.0 mg/kg) | Duration of regularization ([3]; dose 2.0 mg/kg) [min] | Number of regularized arrhythmias (percent) ([3]; dose 2.0 mg/kg) | Number of regularized arrhythmias ([3]; dose 2.0 mg/kg) | LD50 (in vivo [1]; iv) [mg/kg]
Cc1cccc(C)c1NC(=O)C1CCCCN1CCO (racemic) [Substance S-1249, DL-N-(2-hydroxyethyl)pipecolinyl-2,6-dimethylanilide] | 57 | considerably less tissue irritation | 83 ± 6 | 82 ± 6 | equivalent local anaesthetic effect to lidocaine and mepivacaine | local anaesthetic effect of the same order of magnitude as lidocaine and mepivacaine | 140 ± 8 | 103 ± 8 | effects equivalent to lidocaine and better than mepivacaine | 130 ± 40 | 65 | 13 | 280 ± 70 | 70% | 17 | 
CCN(CC)CC(=O)Nc1c(C)cccc1C [Lidocaine, lidocaine, reference compound] |  |  | 79 ± 5 | 77 ± 5 |  |  | 132 ± 7 |  |  |  | 60 | 12 | 220 ± 30 | 79% | 19 | 
Cc1cccc(C)c1NC(=O)C1CCCCN1C (centres unmarked) [Mepivacaine, mepivacaine, reference compound] | 31 |  | 89 ± 4 | 87 ± 4 |  |  | 152 ± 16 | 38 ± 3 |  | 110 ± 20 | 50 | 5 | 185 ± 50 | 50% and 60% | 6 | 31
Cc1cccc(C)c1NC(=O)C1CCCC[N+]1(C)CCO (centres unmarked) [N-methyl-S-1249, N(quaternary-2-hydroxyethyl-N-methyl)pipecolinyl-2,6-dimethylanilide] |  |  |  |  |  | local anaesthetic effect | 128 ± 12 | 125 | rhythm-regularizing effects | 180 ± 30 | 100 | 4 | 310 ± 50 | 100% | 4 | 84
Cc1cccc(C)c1NC(=O)[C@@H]1CCCN1CCO [Substance S-1258, L-N-(2-hydroxyethyl)prolyl-2,6-dimethylanilide] |  |  |  |  |  | better local anaesthetic effect than lidocaine | 111 ± 8 | 130 ± 10 | effective against arrhythmic heartbeats induced by ouabain | 95 ± 20 | 83 | 5 | 195 ± 40 | 67% | 4 | 110
Cc1cccc(C)c1NC(=O)C1CCCCN1CCCO (centres unmarked) [Substance S-1265, N-(3-Hydroxypropyl)pipecolinyl-2,6-dimethylanilide] |  |  |  |  |  | better local anaesthetic effect than lidocaine | 151 ± 6 | 80 ± 4 | effects equivalent to lidocaine and mepivacaine | 120 ± 30 | 67 | 4 | 200 ± 40 | 83% | 5 | 40
